From PMC5727211, “Development of Erasin: a chromone-based STAT3 inhibitor which induces apoptosis in Erlotinib-resistant lung cancer cells” (Scientific Reports, 2017)
Entries after “also recorded” stand apart in the source; their conditions may differ.

Columns and labels:
STAT3 Glu594Ala mutant = STAT3 Glu594Ala mutant (Homo sapiens, UniProt P40763, E594A); test: FP assay against STAT3 Glu594Ala mutant; type: binding
Excerpt: The predicted (E)-trans-configuration of the acyl hydrazone moiety in the protein-bound state was also observed in the X-ray structure of crystals of 8 grown from ethyl acetate / hexane (Supplementary Fig. S4). Substantial conformational changes of the protein are required for ligand binding (Supplementary Fig. S3), a process which can account for the observed time-dependence of inhibition by 8 (Supplementary Fig. S5). […] Substitution of the pyridyl ring for electron-rich, five-membered heteroaromatic rings is tolerated (17–19). […] This behavior is consistent with hydrogen bonding between the molecules’ carbonyl group and the backbone amide of Gln635 as proposed by the docking studies (Fig. 2b), which is expected to suffer from electron-withdrawing substituents on the phenyl ring. Further evidence for hydrogen bonding arises from the inactivity of derivative 22, in which the carbonyl group has been deleted. Substitution of the carbonyl by a sulfonyl group (compound 23) is also not tolerated, indicating specific recognition of 8 by STAT3.
This reduction tails off, consistent with the idea that inhibition of STAT3 by 8 is a slow but reversible process. […]
easily susceptible to covalent modification by nucleophiles. […] C) Activity of 8 in a fluorescence polarization assay against wild-type STAT3 or a STAT3 Glu594Ala mutant after 2 h incubation in the presence of 1 mM DTT. […]

[1] = NMR-based stability analysis (hydrolysis of acyl hydrazone to aldehyde); type: physicochemical; conditions: deuterated phosphate buffer pD = 7.9 with DMSO-d6, 24 h
Method: The formation of acyl hydrazones from aldehydes is a reversible reaction. […] The strongly divergent relative activities of the aldehydes 8a and 9a compared to the acyl hydrazones 8 and 9 imply that the activity of the acyl hydrazones is not a consequence of aldehyde formation.
Na2DPO4 (C/D/N Isotopes, 8.5 mM) and NaD2PO4 (C/D/N Isotopes, 3.3 mM) were dissolved in D2O to give a total phosphate concentration of 11.8 mM. The measured pH of 7.5 corresponds to a pD of 7.91 according to the literature.
This reduction tails off, consistent with the idea that inhibition of STAT3 by 8 is a slow but reversible process. An alternative explanation for time-dependent inhibition would be covalent modification of the Michael acceptor of the chromones by the protein. While we cannot formally exclude this possibility, two observations argue against cysteine alkylation as the […]
double bond of 8. B) Secondly, omission of the strong nucleophile dithiothreitol (DTT) from the assay […]
easily susceptible to covalent modification by nucleophiles. Data after 2 h of incubation are shown. C) Activity of 8 in a fluorescence polarization assay against wild-type STAT3 or a STAT3 Glu594Ala mutant after 2 h incubation in the presence of 1 mM DTT. […]

[2] = system: STAT3 Tyr705 phosphorylation; test: Western Blot, IL-6-stimulated STAT3 Tyr705 phosphorylation in HepG2 cells; type: cell-based, human; conditions: 1 h pre-treatment, 30 min 50 ng/mL IL-6
Excerpt: (§1) An inhibitor of a STAT SH2 domain prevents phosphorylation of STATs at this conserved tyrosine residue, thereby inhibiting STAT-mediated signal transduction (Fig. 3a). Consistent with its activity in the FP assay, 8 inhibited interleukin (IL)-6-stimulated STAT3 Tyr705 phosphorylation in HepG2 cells in a dose-dependent manner (Fig. 3b). […] In contrast, tyrosine phosphorylation of STAT5 in K562 cells is not inhibited (Fig. 3d). The activity profile in cells thus reflects the selectivity profile seen in vitro (Fig. 2a, Table 1), supporting the notion that cellular activities are mediated by functional inhibition of the STAT SH2 domains.
(§2) HepG2 cells were plated in 6-well plates (Corning #3516) and allowed to reach approximately 60% confluence. The medium was then replaced with serum-free medium for 24 h. […]
(§3) Lysates were separated on a polyacrylamide gel under denaturing conditions, and transferred to a nitrocellulose membrane. STAT phosphorylation was assessed using rabbit monoclonal antibodies against the phosphorylated forms only of STAT1, STAT3 or STAT5 (Cell Signaling, 1:1000) with secondary antibody swine anti-rabbit HRP from Dako, 1:3000), followed by reblotting with rabbit monoclonal antibodies against total STAT1, STAT3 or STAT5 (Cell Signaling), and subsequently β-actin loading control. […]

[3] = system: STAT1 Tyr701 phosphorylation; test: Western Blot, IFN-γ-stimulated STAT1 Tyr701 phosphorylation in HepG2 cells; type: cell-based, human; conditions: 1 h pre-treatment, 15 min 50 ng/mL IFNγ
Excerpt: as §1, §2, §3

STAT5 phosphorylation = test: Western Blot, STAT5 tyrosine phosphorylation in K562 cells; type: cell-based, human
Excerpt: as §1, §2, §3

[4] = system: STAT3 Tyr705 phosphorylation; test: Western Blot, STAT3 Tyr705 phosphorylation in Erlotinib-resistant HCC-827 cells; type: cell-based, human; conditions: 24 h
Method: HepG2 cells were plated in 6-well plates (Corning #3516) and allowed to reach approximately 60% confluence. The medium was then replaced with serum-free medium for 24 h. Cells were subsequently pre-treated with compound or DMSO (final DMSO concentration: 0.2%) for 1 h at 37 °C, prior to stimulation for 15 min with 50 ng/mL IFNγ (Pepro Tech, for STAT1 phosphorylation), or 30 min with 50 ng/mL IL-6 (Pepro Tech, for STAT3 phosphorylation). Cells were treated with test compound or DMSO for 1 h (final DMSO concentration 0.2%). K562 cells (1.5 × 10^6 cells per well) were seeded in 6-well plates (Corning #3516) and were treated with test compound or DMSO for 1.5 h (final DMSO concentration 0.2%). […] Afterwards, cells were treated with the test compounds or DMSO (final DMSO concentration: 0.2%) for 24 h. Afterwards, the cells were washed twice with cold phosphate buffered saline (PBS). […]
as §3

Sequence of STAT3 Glu594Ala mutant (P40763 whole entry E594A): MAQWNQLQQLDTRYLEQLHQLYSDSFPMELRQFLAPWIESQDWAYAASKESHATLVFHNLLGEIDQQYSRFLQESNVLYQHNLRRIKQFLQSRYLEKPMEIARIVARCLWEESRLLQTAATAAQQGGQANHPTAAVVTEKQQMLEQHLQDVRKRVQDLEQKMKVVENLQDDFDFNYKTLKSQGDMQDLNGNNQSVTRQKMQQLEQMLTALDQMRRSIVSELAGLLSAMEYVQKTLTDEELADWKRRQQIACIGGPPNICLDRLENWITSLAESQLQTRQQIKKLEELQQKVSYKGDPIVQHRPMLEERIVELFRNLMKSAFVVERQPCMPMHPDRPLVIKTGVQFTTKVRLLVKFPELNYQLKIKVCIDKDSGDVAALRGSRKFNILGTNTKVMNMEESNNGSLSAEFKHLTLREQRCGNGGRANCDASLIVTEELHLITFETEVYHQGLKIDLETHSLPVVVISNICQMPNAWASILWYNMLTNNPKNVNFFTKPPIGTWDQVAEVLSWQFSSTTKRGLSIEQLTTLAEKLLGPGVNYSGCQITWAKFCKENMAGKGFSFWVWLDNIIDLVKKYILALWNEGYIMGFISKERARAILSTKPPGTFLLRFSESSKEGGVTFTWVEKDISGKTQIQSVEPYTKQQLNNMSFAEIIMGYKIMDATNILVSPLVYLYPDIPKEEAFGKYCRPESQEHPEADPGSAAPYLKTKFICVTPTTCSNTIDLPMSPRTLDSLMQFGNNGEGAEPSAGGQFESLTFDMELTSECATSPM

SMILES	activity against STAT3 Glu594Ala mutant compared to wild-type STAT3 (STAT3 Glu594Ala mutant)	IC50 (STAT3 Glu594Ala mutant; 2 h incubation, 1 mM DTT, read-out: app. IC50 against STAT3 Glu594Ala mutant)	hydrolysis to the aldehyde (1H-NMR) [1]	IL-6-stimulated STAT3 Tyr705 phosphorylation [2]	IFN-γ-stimulated phosphorylation of STAT1 Tyr701 [3]	tyrosine phosphorylation of STAT5 (STAT5 phosphorylation)	STAT3 Tyr705 phosphorylation [4]
CC(C)(C)c1ccc2occ(/C=N/NC(=O)c3cccnc3)c(=O)c2c1 [Compound 8]	three-fold lower activity	27 ± 1 µM	no sign of hydrolysis; also recorded: no sign of aldehyde release	inhibited	inhibited to a lesser extent	not inhibited	dose-dependent inhibitory effect
CCC(C)(C)c1ccc2occ(/C=N/NC(=O)c3cccnc3)c(=O)c2c1 [Compound 9]							did not reduce STAT3 Tyr705 phosphorylation
